From US20190106460A1, “BINDING INHIBITORS OF THE BETA. TRANSDUCIN REPEAT-CONTAINING PROTEIN” (priority 2011, published 2019)
Like-named read-outs stand apart in the source and are kept apart here. Starred links: 1 amine or outer side, 2 acyl side, 3 side chain; linkers in the order of their positions; H or OH if unused. Non-standard residues stand in square brackets, D forms with d. Residues, ends and D or L forms follow the SMILES beside them. *: point of attachment. Phe(4-NO2) = N[C@@H](Cc1ccc([N+](=O)[O-])cc1)C(=O)O; Phe(3-Cl) = N[C@@H](Cc1cccc(Cl)c1)C(=O)O; Phe(3-F) = N[C@@H](Cc1cccc(F)c1)C(=O)O; 1Nal = N[C@@H](Cc1cccc2ccccc12)C(=O)O; Phe(2-F) = N[C@@H](Cc1ccccc1F)C(=O)O; NMeE = CN[C@@H](CCC(=O)O)C(=O)O; Suc = O=C(CCC(=O)[*:2])[*:1]; Tos = Cc1ccc(S(=O)(=O)*)cc1; Ethoxycarbonyl = CCOC(=O)*; Bz = O=C(c1ccccc1)*

Experiments:
FBW7/Skp1 = FBW7/Skp1 (Homo sapiens, UniProt Q969H0); assay: Selectivity assay vs other E3s: Fbw7; assay type: biochemical; settings: for inhibition at 100 µM: read-out: % Inhibition Fbw7 @ (100 μM); for inhibition at 10 µM: read-out: % Inhibition Fbw7 @ 10 μM
Sequence of FBW7/Skp1 (Q969H0 whole entry, species assumed): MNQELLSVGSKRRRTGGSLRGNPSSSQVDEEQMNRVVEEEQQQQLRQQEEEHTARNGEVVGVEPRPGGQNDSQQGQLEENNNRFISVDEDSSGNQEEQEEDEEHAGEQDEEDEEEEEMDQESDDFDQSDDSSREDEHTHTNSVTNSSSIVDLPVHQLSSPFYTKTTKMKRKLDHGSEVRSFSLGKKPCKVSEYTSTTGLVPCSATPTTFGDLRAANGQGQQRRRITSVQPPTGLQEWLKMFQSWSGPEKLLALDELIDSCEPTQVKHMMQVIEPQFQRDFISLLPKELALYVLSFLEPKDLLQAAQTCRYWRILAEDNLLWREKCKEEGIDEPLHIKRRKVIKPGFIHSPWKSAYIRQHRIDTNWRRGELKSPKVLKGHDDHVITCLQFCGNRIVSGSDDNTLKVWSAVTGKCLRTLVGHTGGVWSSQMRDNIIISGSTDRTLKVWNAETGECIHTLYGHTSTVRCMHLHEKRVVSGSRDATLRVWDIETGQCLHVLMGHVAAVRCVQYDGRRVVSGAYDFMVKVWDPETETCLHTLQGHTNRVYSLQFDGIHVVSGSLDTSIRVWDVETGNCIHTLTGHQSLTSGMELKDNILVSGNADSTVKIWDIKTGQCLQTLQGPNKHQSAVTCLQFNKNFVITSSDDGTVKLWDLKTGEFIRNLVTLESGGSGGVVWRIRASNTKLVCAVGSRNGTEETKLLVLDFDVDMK
Sequence of FBW7/Skp1 (P63208 whole entry partner, species assumed): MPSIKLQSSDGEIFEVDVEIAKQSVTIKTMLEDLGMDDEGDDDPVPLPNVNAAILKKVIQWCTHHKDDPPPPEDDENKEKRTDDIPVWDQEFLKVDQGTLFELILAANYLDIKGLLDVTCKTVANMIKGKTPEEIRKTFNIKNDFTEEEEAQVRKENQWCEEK
Sequence of FBW7/Skp1 (Q13616 whole entry partner, species assumed): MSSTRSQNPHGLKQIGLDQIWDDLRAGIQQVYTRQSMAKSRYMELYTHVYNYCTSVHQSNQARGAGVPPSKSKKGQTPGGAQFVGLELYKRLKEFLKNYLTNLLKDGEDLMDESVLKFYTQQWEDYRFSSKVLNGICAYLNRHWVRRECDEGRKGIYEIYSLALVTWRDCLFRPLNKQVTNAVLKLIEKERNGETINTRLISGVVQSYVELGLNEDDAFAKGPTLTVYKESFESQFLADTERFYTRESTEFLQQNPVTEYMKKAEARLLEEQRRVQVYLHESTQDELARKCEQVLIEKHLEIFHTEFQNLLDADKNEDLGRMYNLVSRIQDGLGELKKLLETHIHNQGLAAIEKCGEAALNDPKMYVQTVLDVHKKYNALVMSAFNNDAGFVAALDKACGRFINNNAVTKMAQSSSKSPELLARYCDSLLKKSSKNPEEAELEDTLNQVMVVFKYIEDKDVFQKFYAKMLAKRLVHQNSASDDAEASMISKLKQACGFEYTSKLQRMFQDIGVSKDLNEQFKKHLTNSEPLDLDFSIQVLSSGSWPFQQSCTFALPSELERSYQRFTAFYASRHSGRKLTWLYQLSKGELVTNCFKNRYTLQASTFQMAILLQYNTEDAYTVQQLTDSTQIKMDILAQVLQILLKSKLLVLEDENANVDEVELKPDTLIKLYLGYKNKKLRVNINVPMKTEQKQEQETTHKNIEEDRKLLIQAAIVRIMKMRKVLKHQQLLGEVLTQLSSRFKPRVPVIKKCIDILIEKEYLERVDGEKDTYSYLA
Sequence of FBW7/Skp1 (P62877 whole entry partner, species assumed): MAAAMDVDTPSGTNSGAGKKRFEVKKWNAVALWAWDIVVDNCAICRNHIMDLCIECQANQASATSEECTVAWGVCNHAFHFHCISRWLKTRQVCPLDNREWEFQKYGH
Method: (§1) βTrCP Ubiquitination Assay and Selectivity Assays
(§2) Master mixes were prepared in a 50 mM Herpes buffer at pH 7.5, in 75 mM NaCl and 1 mM DTT without Mg or ATP and peptides were added to a final concentration of 100 μM. Reactions were incubated at room temperature for 30 minutes and then Mg/ATP was added to the mix. Reactions were further incubated for an additional 60 minutes and then stopped by adding SDS gel loading buffer and boiled for 5 minutes. Reactions were run on SDS-PAGE (10%) and transferred to nitrocellulose membranes and probed with HRP-Streptavidin.
FBW7 selectivity assays were performed in the same manner except using FBW7/Skp1 as E3 component and cyclin E as the substrate. Blots were probed using anti-cyclin E antibody.
(§3) Candidate compounds were tested for inhibition of Fbw7 and Skp2 as described above.

βTrCP/Skp1 = βTrCP/Skp1 (Homo sapiens, UniProt Q9Y297); assay: Surface plasmon resonance (SPR), Biacore T200; assay type: binding; settings: apparent KD averaged over both surfaces
Sequence of βTrCP/Skp1 (P63208 whole entry partner, one chain of several): as the sequence (P63208 whole entry partner, species assumed) above
Method: Surface Plasmon Resonance (SPR)
Experiments were carried out using the Biacore T200 SPR detection system. This system exploits the phenomenon of surface plasmon resonance (SPR) to monitor interactions between molecules. The system involves the attachment of one interacting partner to a surface (an appropriate sensor chip) while the other interacting partner is passed over it in solution. The binding of molecules to the surface generates an SPR response (measured in response units (RU)) that is proportional to the mass and amount of the biomolecule (in this case βTrCP/Skp1) bound to the chip. The relative responses obtained are dependent on the concentration of the molecule binding. At RUmaximum, the attached protein's binding sites are saturated. Binding events can be followed in real time and a range of interaction characteristics can be determined including kinetics, specificity of interactions and the concentration of specific molecules in a sample.
As βTrCP was His tagged, an NTA sensor chip was used. This sensor chip has a dextran surface matrix with immobilized nitrilotriacetic acid (NTA) which provides a means of capturing polyHis-tagged proteins through Nickel chelation. It was hoped that addition of Ni^+ would orient the protein in a specific (and hopefully active) manner as it is covalently immobilised via amine coupling. Addition of EDC:NHS (N-ethyl-N′-(3-[…])-carbodiimide:N-hydroxysuccinimide) converts carboxyl groups on the dextran sensor chip surface to succinamide esters which readily form covalent bonds with primary amines. Each chip contains four flow cells (each a separate surface) which means that compounds/peptides can be passed over different forms of βTrCP and a reference surface simultaneously. If binding to βTrCP is occurring, responses should be the same (accounting for differences in density of surface etc) on each surface.
Two different βTrCP protein complexes were immobilised on to an NTA biacore sensor chip. One included the GSTSkp1 fusion (HisβTrCP/GSTSkp1) while the other was immobilised after GST Removal by Thrombin (HisβTrCP/Skp1). To ensure that the GST moiety is completely removed from Skp1, βTrCP/GSTSkp1 was incubated with thrombin ((10units/mg protein) for at least 16 hours at room temperature in 10mMHEPES 150mMNaCl pH7.4+2 mM CaCl2. Thrombin and GST were removed from βTrCP/Skp1 by buffer exchange through a 50 KDa MWCO vivaspin concentrator.
Protein Immobilisation Procedure for NTA Chip
Ni+ (500 μM NiCl) loaded on to surface at a flow rate of 5 μl/min for 60s. EDC/NHS (activates dextran carboxylates) loaded at a flow rate of 5 μl/min for 240s. Protein ([protein]=100 nM to 1 μM) loaded at a flow rate of 10 μl/min for 180s. Strip solution (350 μM EDTA/1M NaCl) added at flow rate of 10 μl/min for 30s (to chelate excess Ni+ and remove non-covalently bound protein e.g. protein oligomers). Quench solution (ethanolamine) at flow rate of 5 μl/min for 240s (to deactivate surface molecules on the chip that have not crosslinked protein). The immobilisation buffer used was 10 mM HEPES pH 7.4, 150 mM NaCl,
GST Capture Procedure (for Immobilisation Via GSTSkp1)
EDC:NHS was injected at 5 μl/min for 4 min to activate surface for amine coupling (this converts carboxyl groups on the surface of the chip to succinamide esters that react with primary amines)
Anti-GST (60 μg/ml). was loaded at 10 μl/min for 4 min resulting in an increase in response units of 6730 (Biacore manual states it should result in ˜7000)
Ethanolamine was injected at 5 μl/min for 5 min to deactivate remaining unreacted esters at surface (quenching).
Injection of a low concentration of purified GST (from kit) was injected for 3 mins at 5 μl/min before running a regeneration cycle with glycine pH2.0 that disrupts the antibody-GST interaction. […]

β-TrCP1/Skp1 = β-TrCP1/Skp1 (Homo sapiens, UniProt Q9Y297); assay: βTrCP ubiquitination assay (Ub assay); assay type: biochemical; settings: for Ub Assay 10 μM: 10 μM compound; for Ub Assay 100 μM: 100 μM compound
Sequence of β-TrCP1/Skp1 (P63208 2-163 partner limits assumed, one chain of several): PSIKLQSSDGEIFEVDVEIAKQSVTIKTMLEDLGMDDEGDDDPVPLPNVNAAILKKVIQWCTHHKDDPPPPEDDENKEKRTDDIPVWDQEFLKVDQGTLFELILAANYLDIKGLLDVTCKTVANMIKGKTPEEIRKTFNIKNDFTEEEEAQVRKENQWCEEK
Method: as §1
0.5 μM Peptide substrate (biotin)
as §2
Candidate compounds were tested in duplicate at both 10 and 100 μM against the E3 ligase cascades βTrCP(IκBα) and βTrCP(β-catenin). The E3 assays were carried out according to the component concentrations detailed in Table 9. In each case the E2 was HA,6His-UbcH3-(hu,FL), the E1 was 6His-UBE1-(hu,FL) and the ubiquitin (Sigma U6253) was biotinylated at a 5:1 ratio. Substrate phosphorylation was performed in the absence of compound; consequently any observed signal modulation should not reflect inhibition of the up-stream kinase reaction. All other steps (E1, E2 and substrate ubiquitination) were carried out in the presence of compound. The stopped reaction mix (10 μl) was added to an ECL plate loaded with anti c-Myc ( 1/500 Dilution, Millipore 05-724) and blocked with 5% BSA. Binding was allowed to proceed for 1 hour at RT before a wash step (3 40 μl PBST washes). Detection was achieved by binding SA-Ru TAG at 1 μg/ml (1 hour @ RT, 3 40 μl PBST washes) before reading on an MSD Sector Imager 6000.
Assays were performed as described above

Skp2 = Skp2 (Homo sapiens, UniProt Q13309); assay: Selectivity assay vs other E3s: Skp2; assay type: biochemical; settings: for inhibition at 100 µM: read-out: % Inhibition Skp2 @ (100 μM); for inhibition at 10 µM: read-out: % Inhibition Skp2 @ 10 μM
Sequence of Skp2 (Q13309 whole entry, species assumed): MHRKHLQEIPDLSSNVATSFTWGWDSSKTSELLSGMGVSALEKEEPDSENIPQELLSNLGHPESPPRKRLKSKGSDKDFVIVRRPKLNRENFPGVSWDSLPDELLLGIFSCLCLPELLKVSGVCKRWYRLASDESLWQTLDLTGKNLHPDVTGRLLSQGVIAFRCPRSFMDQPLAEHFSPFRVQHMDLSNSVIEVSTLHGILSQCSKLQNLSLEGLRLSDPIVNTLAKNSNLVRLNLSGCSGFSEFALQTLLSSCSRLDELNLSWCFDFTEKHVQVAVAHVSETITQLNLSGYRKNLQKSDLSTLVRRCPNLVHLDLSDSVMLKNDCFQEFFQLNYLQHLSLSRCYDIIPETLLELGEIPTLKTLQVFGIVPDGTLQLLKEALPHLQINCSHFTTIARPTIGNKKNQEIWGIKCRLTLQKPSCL
Sequence of Skp2 (P63208 whole entry partner, species assumed): as the sequence (P63208 whole entry partner, species assumed) above
Sequence of Skp2 (Q13616 whole entry partner, species assumed): as the sequence (Q13616 whole entry partner, species assumed) above
Sequence of Skp2 (P62877 whole entry partner, species assumed): as the sequence (P62877 whole entry partner, species assumed) above
Method: as §1, §2, §3

βTrCP [1] = biological target: βTrCP (Homo sapiens, UniProt Q9Y297); assay: Fluorescence polarisation (FP) binding assay with fluorescein-tagged IκB peptide
Target sequence in this assay (P63208 whole entry partner, one chain of several): as the sequence (P63208 whole entry partner, species assumed) above

βTrCP [2] = biological target: T1, βTrCP (Homo sapiens, UniProt Q9Y297); assay: Biotin pull down assay with biotinylated IκB peptide; assay type: binding; settings: for Biotin Pulldown Assay 10 μM: 10 μM compound; for Biotin Pulldown Assay 100 μM: 100 μM compound
T1 sequence (Q9Y297 1-605): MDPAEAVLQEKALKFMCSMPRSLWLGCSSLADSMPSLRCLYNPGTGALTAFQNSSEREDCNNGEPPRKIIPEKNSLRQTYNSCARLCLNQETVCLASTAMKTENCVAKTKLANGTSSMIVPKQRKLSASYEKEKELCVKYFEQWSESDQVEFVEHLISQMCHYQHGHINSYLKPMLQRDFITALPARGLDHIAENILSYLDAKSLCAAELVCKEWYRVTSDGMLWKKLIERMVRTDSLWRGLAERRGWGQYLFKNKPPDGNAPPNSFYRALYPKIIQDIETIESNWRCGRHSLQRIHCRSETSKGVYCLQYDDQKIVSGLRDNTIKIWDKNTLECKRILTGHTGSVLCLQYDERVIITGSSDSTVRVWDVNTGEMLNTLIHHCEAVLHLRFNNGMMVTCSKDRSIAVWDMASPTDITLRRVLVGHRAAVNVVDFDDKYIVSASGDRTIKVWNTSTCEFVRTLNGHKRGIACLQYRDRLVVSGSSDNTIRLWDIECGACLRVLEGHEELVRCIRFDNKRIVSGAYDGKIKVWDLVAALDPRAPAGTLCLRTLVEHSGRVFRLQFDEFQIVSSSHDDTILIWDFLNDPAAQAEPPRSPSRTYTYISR

[3] = Table 11, with spread, read-out: FP IC50/μM
[4] = Tables 1, 3, 7, 8, 10 nM fluorescein-tagged IκB peptide, read-out: FP Assay IC50/μM

SMILES	inhibition at 100 µM (FBW7/Skp1; 100 μM, value in brackets) [%]	inhibition at 10 µM (FBW7/Skp1) [%]	Kd (βTrCP/Skp1) [µM]	Ub Assay 10 μM (β-TrCP1/Skp1)	Ub Assay 100 μM (β-TrCP1/Skp1)	inhibition at 100 µM (Skp2; 100 μM, value in brackets) [%]	inhibition at 10 µM (Skp2) [%]	IC50 (βTrCP [1]; [3]) [µM]	Biotin Pulldown Assay 10 μM (βTrCP [2])	Biotin Pulldown Assay 100 μM (βTrCP [2])	IC50 (βTrCP [1]; [4]) [µM]	inhibition at 100 µM (FBW7/Skp1) [%]	inhibition at 100 µM (Skp2) [%]	IC50 (βTrCP [1]; FP Assay IC50/μM, Tables 1, 3, 7, 8, 10 nM fluorescein-tagged IκB peptide) [µM]	IC50 (βTrCP [1]; FP IC50/μM, Table 11, with spread) [µM]
CCOC(=O)N[C@H](CC(=O)O)C(=O)N[C@@H](CCC(=O)O)C(=O)NCC(=O)N[C@@H](Cc1cccc(F)c1)C(=O)N[C@@H](Cc1c[nH]c2ccccc12)C(=O)N[C@@H](CCC(=O)O)C(N)=O [UBP023, EtO(CO)-dEGF(3F)WE-NH2] (Ethoxycarbonyl-[dD]EG[Phe(3-F)]WE-NH2)	12	0	0.034 ± 0.017	inhibits/	inhibits	4	4	0.045 ± 0.005	reduces/	inhibits	–	–	–	–	–
NC(=O)[C@H](CCC(=O)O)NC(=O)[C@H](Cc1cccc2ccccc12)NC(=O)[C@H](Cc1ccc([N+](=O)[O-])cc1)NC(=O)CNC(=O)[C@H](CCC(=O)O)NC(=O)CCC(=O)O [UBP011, Suc-EGF(4NO2)1NalE-NH2] (Suc-EG[Phe(4-NO2)][1Nal]E-NH2)	28	14	1.96 ± 0.635	reduces/	inhibits	6	12	1.31 ± 0.198	reduces/	inhibits	–	–	–	–	–
COc1ccc(C[C@H](NC(=O)[C@H](Cc2ccccc2F)NC(=O)CNC(=O)[C@H](CCC(=O)O)NC(=O)CCC(=O)O)C(=O)N[C@@H](CCC(=O)O)C(N)=O)cc1 [UBP006, Suc-EGF(2F)Y(Me)E-NH2] (Suc-EG[Phe(2-F)]Y(Me)E-NH2)	4	0	4.4 ± 0.82	no effect/	inhibits	4	0	3.28 ± 0.5	no effect/	reduces	3.2	–	–	–	–
CC(=O)N[C@H](CC(=O)O)C(=O)N[C@@H](CCC(=O)O)C(=O)NCC(=O)N[C@@H](Cc1cccc(F)c1)C(=O)N[C@@H](Cc1c[nH]c2ccccc12)C(=O)N[C@@H](CCC(=O)O)C(N)=O [UBP017, Ac-dEGF(3F)WE-NH2] (Ac-[dD]EG[Phe(3-F)]WE-NH2)	0	3	–	reduces/	inhibits	27	10	0.102 ± 0.017	reduces/	inhibits	0.102	–	–	–	–
Cc1ccc(S(=O)(=O)N[C@H](CC(=O)O)C(=O)N[C@@H](CCC(=O)O)C(=O)NCC(=O)N[C@@H](Cc2cccc(Cl)c2)C(=O)N[C@@H](Cc2c[nH]c3ccccc23)C(=O)N(C)[C@@H](CCC(=O)O)C(N)=O)cc1 [UBP033, Ts-dEGF(3Cl)WE(Me)-NH2] (Tos-[dD]EG[Phe(3-Cl)]W[NMeE]-NH2)	11	7	–	–	inhibits	10	0	–	–	inhibits	0.017	–	–	–	–
Cc1ccc(S(=O)(=O)N[C@H](CC(=O)O)C(=O)N[C@@H](CCC(=O)O)C(=O)NCC(=O)N[C@@H](Cc2cccc(Cl)c2)C(=O)N[C@@H](Cc2c[nH]c3ccccc23)C(=O)N[C@@H](CCC(=O)O)C(N)=O)cc1 [UBP034, Ts-dEGF(3Cl)WE-NH2] (Tos-[dD]EG[Phe(3-Cl)]WE-NH2)	6	8	–	inhibits/	inhibits	0	0	0.01 ± 0.002	s. reduces/	inhibits	–	–	–	–	–
NC(=O)[C@H](CCC(=O)O)NC(=O)[C@H](Cc1c[nH]c2ccccc12)NC(=O)[C@H](Cc1cccc(F)c1)NC(=O)CNC(=O)[C@H](CCC(=O)O)NC(=O)[C@@H](CC(=O)O)NC(=O)c1ccccc1 [UBP018, Bz-dEGF(3F)WE-NH2] (Bz-[dD]EG[Phe(3-F)]WE-NH2)	–	0	–	reduces/	inhibits	–	0	–	reduces/	inhibits	–	5	0	0.173	0.173 ± 0.072
